From US7625887B2, “Receptor agonists” (Takeda Pharmaceutical Company Limited, priority 2003, dated 2009)

Key:
[1] = system: mock CHO cells free of human TGR5 expression; assay: cAMP production increasing activity in mock CHO cells free of human TGR5 expression; type: cell-based; settings: test compounds 2 μM, average of 3 groups
Description: As the assay buffer, Hank's balanced salt solution (HBSS, Invitrogen) supplemented with 0.1% bovine serum albumin (BSA, Sigma) and 0.2 mM 3-isobutyl-1-methylxanthine (IBMX, Sigma) was used. The cells were washed twice with the assay buffer and preincubated at 37° C. for 30 min. The cells were washed twice, and test compound samples (10 μM) diluted with the assay buffer to various concentrations were added. The cells were incubated at 37° C. for 20 min. The culture supernatant was discarded, and the cAMP production amount was measured using a cAMP Screen System (ABI).

human TGR5 [2] = target: T1, human TGR5 (Homo sapiens, UniProt Q8TDU6); assay: cAMP production increasing activity in human TGR5 expressing CHO cells; type: cell-based; settings: test compound 1 μM, 30 min; 1 μM lithocholic acid = 100%, no addition = 0%; average of 3 groups
T1 construct: expressed in transfected cells; host or cells: CHO cells
T1 sequence (Q8TDU6 1-330): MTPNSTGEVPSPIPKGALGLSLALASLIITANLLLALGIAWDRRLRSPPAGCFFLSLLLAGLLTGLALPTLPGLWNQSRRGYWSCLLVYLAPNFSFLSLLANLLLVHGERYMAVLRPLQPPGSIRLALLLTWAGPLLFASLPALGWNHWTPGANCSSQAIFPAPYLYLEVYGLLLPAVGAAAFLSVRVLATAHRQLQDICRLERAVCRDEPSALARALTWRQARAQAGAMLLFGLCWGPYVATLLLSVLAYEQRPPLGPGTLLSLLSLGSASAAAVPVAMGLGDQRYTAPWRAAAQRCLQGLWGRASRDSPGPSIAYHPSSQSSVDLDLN
Description: As the assay buffer, Hank's balanced salt solution (HBSS, Invitrogen) supplemented with 0.1% bovine serum albumin (BSA, Sigma) and 0.5 mM 3-isobutyl-1-methylxanthine (IBMX, Sigma) was used. A test compound sample (1 μM) diluted with the assay buffer was added to the cells. The cells were incubated at 37° C. for 30 min. and the supernatant was suctioned. The intracellular cAMP amount increased by the stimulation of the test compound was quantitatively determined using a HitHunter™ EFC Cyclic AMP Chemiluminescence Assay Kit (ABI) kit.

rabbit TGR5 = target: T2, rabbit TGR5 (Oryctolagus cuniculus, UniProt Q862A8); assay: cAMP production increasing activity in rabbit TGR5 expressing CHO cells; type: cell-based; settings: Experimental Example 6; 2 μM; 10 μM lithocholic acid = 100%; average of 3 groups
T2 construct: expressed in transfected cells; host or cells: CHO cells
T2 sequence (Q862A8 1-330): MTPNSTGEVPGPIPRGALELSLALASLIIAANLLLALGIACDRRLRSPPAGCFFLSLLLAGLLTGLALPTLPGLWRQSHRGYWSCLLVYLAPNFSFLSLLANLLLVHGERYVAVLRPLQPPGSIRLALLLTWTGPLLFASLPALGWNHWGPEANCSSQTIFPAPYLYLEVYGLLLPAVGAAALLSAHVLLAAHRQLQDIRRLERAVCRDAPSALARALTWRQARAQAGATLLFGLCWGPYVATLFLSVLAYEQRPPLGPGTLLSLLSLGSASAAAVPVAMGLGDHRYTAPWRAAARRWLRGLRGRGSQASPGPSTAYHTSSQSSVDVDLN
Description: As the assay buffer, Hank's balanced salt solution (HBSS, Invitrogen) supplemented with 0.1% bovine serum albumin (BSA, Sigma) and 0.2 mM 3-isobutyl-1-methylxanthine (IBMX, Sigma) was used. The cells were washed twice with the assay buffer and preincubated at 37° C. for 30 min. The cells were washed twice and test compound samples (2 μM) diluted with the assay buffer were added. The cells were incubated at 37° C. for 20 min. The culture supernatant was discarded, and the cAMP production amount was measured using a cAMP Screen System (ABI).

NCI-H716 cells = assay: intracellular cAMP production increasing action in NCI-H716 cells; type: cell-based, human; settings: 10 μM, 2 hrs; production amount in TLCA (50 μM) was 100%; Base 11
Description: NCI-H716 (ATCC) was suspended in a medium (Dulbecco's Modified Eagle Medium (DMEM, Invitrogen) supplemented with 10% fetal bovine serum (Invitrogen), 100 U/ml penicillin and 100 μg/ml streptomycin), seeded in a 96 well plate, cultured for 2 days and used for cAMP production assay. As a cAMP assay buffer, modified Krebs-Ringer bicarbonate buffer (KRBH, 116 mM NaCl, 4.7 mM KCl, 1.2 mM KH2PO4, 1.2 MM MgSO4, 2.5 mM CaCl2, 25 mM NaHCO3, 24 mM HEPES pH 7.3), supplemented with glucose 5.5 mM, bovine serum albumin (BSA) 0.1%, and 3-isobutyl-1-methylxanthine (IBMX, Sigma) 1 mM, was used. The cells were washed once with cAMP assay buffer. Bile acids (50 μM) diluted with cAMP assay buffer or the compounds of the present invention (10 μM) were added thereto and the cells were incubated for 2 hrs. The culture supernatant was discarded, and the cAMP production amount was measured by cAMP Screen System (ABI). In the Table, Base means non-addition of a test compound.

rat TGR5 = target: T3, rat TGR5 (Rattus norvegicus, UniProt Q80T02); assay: cAMP production increasing activity in rat type TGR5 expressing CHO cells; type: cell-based; settings: 0.5 h, read-out: cAMP producing activity (control %)
T3 construct: expressed in transfected cells; host or cells: CHO cells
T3 sequence (Q80T02 1-329): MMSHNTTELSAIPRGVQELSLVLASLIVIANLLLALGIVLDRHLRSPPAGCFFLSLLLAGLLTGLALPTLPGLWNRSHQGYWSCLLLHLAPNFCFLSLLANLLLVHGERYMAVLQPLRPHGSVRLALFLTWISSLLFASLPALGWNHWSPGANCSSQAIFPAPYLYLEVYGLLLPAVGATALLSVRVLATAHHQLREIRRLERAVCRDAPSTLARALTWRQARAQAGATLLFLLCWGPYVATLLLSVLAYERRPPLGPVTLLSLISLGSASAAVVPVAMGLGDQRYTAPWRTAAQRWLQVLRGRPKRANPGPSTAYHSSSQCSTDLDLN
Description: (§1) After culture, the cells were detached with 0.5 mM EDTA/PBS, washed with PBS, and suspended in Buffer 1 (HBSS+0.1% BSA, 25 mM HEPES pH 7.3, 0.5 mM IBMX) at a density of 1×10^7 cells/ml. The obtained cell suspension (460 μl), anti-cAMP acceptor beads (23 μl) of AlphaScreen cAMP assay kit (Perkin Elmer) and Buffer 1 (667 μl) were mixed and dispensed to a white 96 well plate (Costar) by 10 μl. Then, a test compound diluted with Buffer 1 was added to each well by 10 μl. At this time, one row of the plate was free of the cell suspension but added with anti-cAMP acceptor beads (9 μl) and Buffer 1 (441 μl) alone, and serial dilutions of cAMP were added instead of the test compound and used as the standard. A mixture of the cell suspension and the test compound contained in the plate was allowed to react at room temperature for 30 min. […] The plate was shaken at room temperature for 2.5 hrs and fluorescence intensity was measured by Fusion α (Parkin Elmer), and the cAMP concentration of each well was calculated using the cAMP standard on each plate.

[3] = system: rat intestine primary culture cells; assay: GLP-1 secretion from rat intestine primary culture cells; type: cell-based; settings: test compound 20 μM, 150 min
Description: Terminal ileum and colon mucous membrane were removed from rat (Wistar, male, Charles River Japan, Inc.) and subjected to an enzyme treatment to give a cell dispersion according to the following method.
The enzyme solution used was obtained by dissolving 5 mg/ml Collagenase (Sigma), 5 mg/ml Hyaluronidase (Sigma) and 0.5 mg/ml DNaseI (Sigma) in a medium. The medium used was Dulbecco's Modified Eagle Medium (DMEM, Invitrogen) supplemented with 4.5 g/l Glucose, 5% FBS (Invitrogen), 100 units/ml Penicillin (Invitrogen), 100 μg/ml Streptomycin (Invitrogen), 50 μg/ml Gentamicin (Invitrogen) and 20 mM Hepes (pH 7.3). After digestion by the enzyme solution at 37° C., the tissue sections were prepared into dispersed cells by passing through a pipette 7 times and the cells were collected. The collected cells were washed with a buffer (incubation buffer) obtained by adding 5.5 mM Glucose and 0.1% BSA to a modified Krebs-Ringer bicarbonate buffer (KRBH, 116 mM NaCl, 4.7 mM KCl, 1.2 mM KH2PO4, 1.2 mM MgSO4, 2.5 mM CaCl2, 25 mM NaHCO3, 24 mM HEPES, pH 7.3), and preincubated at 37° C. under 5% CO2 for 30 min. 0.1 μM Phorbol ester (Wako), 1% DPPIV inhibitor (Linco) and a test compound were added to the above-mentioned incubation buffer, and the obtained buffer was added to the cells after the aforementioned preincubation and incubated for 150 min. The culture supernatant was collected and cryopreserved. The concentration of GLP-1 released in the culture supernatant was measured using an ELISA kit (Linco).

guinea pig TGR5 = assay: cAMP production increasing activity in guinea pig TGR5 expressing CHO cells; type: cell-based; settings: test compound 2 μM; 10 μM lithocholic acid = 100%; average of 3 groups
Description: as §1, with “The guinea pig type TGR5 expressing CHO cells were seeded in one 150 cm^2 flask at 1×10^7 cells, and cultured overnight at 37° C., 5% CO2. After” for “After”

human TGR5 [4] = target: T1, human TGR5; assay: cAMP production increasing activity in human TGR5 expressing CHO cells; type: cell-based; settings: read-out: EC50 value (concentration necessary to make the cAMP production amount 50%)
[5] = Experimental Example 5, Base 0.19

| SMILES | cAMP production increasing activity ([1]; Experimental Example 4, Base 0.28) [pmol] | cAMP production increasing activity (control %) (human TGR5 [2]) | cAMP production increasing activity (control %) (rabbit TGR5) | cAMP production increasing activity [1, 5] [pmol] | cAMP production increasing activity (%) (NCI-H716 cells) | activation at 2 µM (rat TGR5) [%] | GLP-1 (% relative to non-addition) [3] | cAMP producing activity (control %) (guinea pig TGR5) | EC50 (human TGR5 [4]) [nM] |
| --- | --- | --- | --- | --- | --- | --- | --- | --- | --- |
| CC(C)(C)CN1C(=O)C(CC(=O)NCc2ccccc2F)N(C(=O)c2ccncc2)Cc2ccccc21 (centres unmarked) [Example 1B, N-(2-fluorobenzyl)-2-(4-isonicotinoyl-1-neopentyl-2-oxo-2,3,4,5-tetrahydro-1H-1,4-benzodiazepin-3-yl)acetamide] | 0.23 | 113 | 71.2 |  |  |  |  |  |  |
| O=C(c1cc(C(F)(F)F)cc(C(F)(F)F)c1)N1CCOc2nccc(-c3ccccc3)c2C1 [Example 14C, 4-[3,5-bis(trifluoromethyl)benzoyl]-6-phenyl-2,3,4,5-tetrahydropyrido[3,2-f][1,4]oxazepine] |  | 100 | 116 | 0.17 |  |  |  |  |  |
| FC(F)(F)c1cc(CN2CCOc3nccc(-c4ccccc4)c3C2)cc(C(F)(F)F)c1 [Example 9C, 4-[3,5-bis(trifluoromethyl)benzyl]-6-phenyl-2,3,4,5-tetrahydropyrido[3,2-f][1,4]oxazepine] |  | 96 | 99 | 0.2 | 109 | 112 |  |  |  |
| O=S(=O)(c1cc(C(F)(F)F)cc(C(F)(F)F)c1)N1CCCOc2nccc(-c3ccccc3)c2C1 [Example 23C, 5-{[3,5-bis(trifluoromethyl)phenyl]sulfonyl}-7-phenyl-3,4,5,6-tetrahydro-2H-pyrido[2,3-b][1,5]oxazocine] |  |  |  |  |  | 148 | 133 % relative to non-addition | 119 |  |
| CC(=O)NCc1cccc(C2OC(CC(=O)NCc3ccccc3F)C(=O)N(CC(C)(C)C)c3ccc(Cl)cc32)c1 (single isomer, unassigned; (+)) [Reference Example 33, (+)-2-[3,5-trans-5-[3-(acetylaminomethyl)phenyl]-7-chloro-1-neopentyl-2-oxo-1,2,3,5-tetrahydro-4,1-benzoxazepin-3-yl]-N-(2-fluorobenzyl)acetamide] |  |  |  |  |  | 92 | 201 % relative to non-addition |  | < 100 |
| FC(F)(F)c1cc(CN2CCCOc3nccc(-c4ccccc4)c3C2)cc(C(F)(F)F)c1.FC(F)(F)c1cc(CN2CCCOc3nccc(-c4ccccc4)c3C2)cc(C(F)(F)F)c1.O=S(=O)(O)O [Example 18C, 5-[3,5-bis(trifluoromethyl)benzyl]-7-phenyl-3,4,5,6-tetrahydro-2H-pyrido[2,3-b][1,5]oxazocine ½sulfate] |  | 112 | 106 | 0.17 |  |  |  |  |  |
